{
  "source": "paper PMC10449633",
  "about": "(Nature Chemical Biology, 2023)",
  "key": {"Sec61": {"target": "T1, Sec61 (Homo sapiens, UniProt P61619)", "T1 construct": "endogenous in cells", "T1 sequence (P61619 whole entry)": "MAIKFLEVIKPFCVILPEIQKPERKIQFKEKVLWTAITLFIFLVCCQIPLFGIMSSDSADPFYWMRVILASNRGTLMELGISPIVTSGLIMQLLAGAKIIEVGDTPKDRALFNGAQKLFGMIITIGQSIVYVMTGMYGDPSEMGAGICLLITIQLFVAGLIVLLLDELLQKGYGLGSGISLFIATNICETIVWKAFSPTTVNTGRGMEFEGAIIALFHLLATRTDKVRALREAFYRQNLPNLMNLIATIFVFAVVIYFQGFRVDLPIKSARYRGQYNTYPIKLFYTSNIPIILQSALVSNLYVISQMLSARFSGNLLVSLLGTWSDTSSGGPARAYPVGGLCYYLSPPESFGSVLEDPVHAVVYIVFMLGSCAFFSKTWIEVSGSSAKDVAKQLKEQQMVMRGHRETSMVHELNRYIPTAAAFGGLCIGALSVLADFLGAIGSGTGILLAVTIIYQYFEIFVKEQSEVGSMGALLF", "T1 sequence (P60059 whole entry, further chain)": "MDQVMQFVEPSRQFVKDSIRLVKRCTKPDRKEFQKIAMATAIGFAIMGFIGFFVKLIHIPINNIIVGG", "T1 sequence (P60468 whole entry, further chain)": "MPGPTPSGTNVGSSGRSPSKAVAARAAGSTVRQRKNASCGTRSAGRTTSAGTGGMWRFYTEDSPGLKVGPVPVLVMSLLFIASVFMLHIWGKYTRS", "test": "cell-based", "assay_type": "cell-based"}, "[1]": {"system": "mouse skin inflammation model", "set-up": "method as in PMID 26019221", "conditions": "at its maximum tolerated dose; cited from earlier work"}},
  "note": "Values joined by “and” are separate entries in the source; they are usually repeats but may differ in a detail not shown here. Identical values can stand only once.",
  "data": [
    {"substance": "mycolactone A/B", "values": [
      {"measurement": "potency against VCAM-GLuc relative to pPL-GLuc", "setting": "Sec61; HEK293T, 24 h", "value": "equipotent"},
      {"measurement": "secreted luciferase activity (% of no-drug control)", "setting": "Sec61; VCAM signal peptide, Drug nM (log10) 0.18303", "value": "91.1752% and 96.3566% and 105.08% and 96.2111%"},
      {"measurement": "secreted luciferase activity (% of no-drug control)", "setting": "Sec61; VCAM signal peptide, Drug nM (log10) 0.660151", "value": "60.5653% and 60.6911% and 72.2191% and 65.68%"},
      {"measurement": "secreted luciferase activity (% of no-drug control)", "setting": "Sec61; VCAM signal peptide, Drug nM (log10) 1.13727", "value": "69.7373% and 62.7916% and 84.5753% and 63.8152%"},
      {"measurement": "secreted luciferase activity (% of no-drug control)", "setting": "Sec61; VCAM signal peptide, Drug nM (log10) 1.61439", "value": "23.3051% and 17.9704% and 24.3586% and 17.2696%"},
      {"measurement": "secreted luciferase activity (% of no-drug control)", "setting": "Sec61; VCAM signal peptide, Drug nM (log10) 2.09151", "value": "9.614% and 7.324% and 15.2923% and 7.158%"},
      {"measurement": "secreted luciferase activity (% of no-drug control)", "setting": "Sec61; VCAM signal peptide, Drug nM (log10) 2.56864", "value": "5.834% and 4.881% and 8.3778% and 4.722%"},
      {"measurement": "secreted luciferase activity (% of no-drug control)", "setting": "Sec61; VCAM signal peptide, Drug nM (log10) 3.04576", "value": "4.831% and 3.708% and 6.049% and 3.853%"},
      {"measurement": "secreted luciferase activity (% of no-drug control)", "setting": "Sec61; VCAM signal peptide, Drug nM (log10) 3.52288", "value": "3.813% and 3.595% and 4.497% and 3.349%"},
      {"measurement": "secreted luciferase activity (% of no-drug control)", "setting": "Sec61; VCAM signal peptide, Drug nM (log10) 4", "value": "4.399% and 3.701% and 4.702% and 3.31%"},
      {"measurement": "secreted luciferase activity (% of no-drug control)", "setting": "Sec61; VCAM signal peptide, Drug nM (log10) -0.29409", "value": "91.3897% and 90.48% and 98.9457% and 92.5099%"},
      {"measurement": "secreted luciferase activity (% of no-drug control)", "setting": "Sec61; pPL signal peptide, Drug nM (log10) 0.18303", "value": "96.941% and 113.105% and 106.161% and 90.9819%"},
      {"measurement": "secreted luciferase activity (% of no-drug control)", "setting": "Sec61; pPL signal peptide, Drug nM (log10) 0.660151", "value": "87.4346% and 105.37% and 92.2325% and 88.4507%"},
      {"measurement": "secreted luciferase activity (% of no-drug control)", "setting": "Sec61; pPL signal peptide, Drug nM (log10) 1.13727", "value": "90.1482% and 100.766% and 90.4471% and 85.7727%"},
      {"measurement": "secreted luciferase activity (% of no-drug control)", "setting": "Sec61; pPL signal peptide, Drug nM (log10) 1.61439", "value": "34.1743% and 36.4459% and 25.7816% and 32.3021%"},
      {"measurement": "secreted luciferase activity (% of no-drug control)", "setting": "Sec61; pPL signal peptide, Drug nM (log10) 2.09151", "value": "11.7024% and 15.7348% and 12.066% and 11.9677%"},
      {"measurement": "secreted luciferase activity (% of no-drug control)", "setting": "Sec61; pPL signal peptide, Drug nM (log10) 2.56864", "value": "10.1212% and 10.0148% and 7.898% and 9.649%"},
      {"measurement": "secreted luciferase activity (% of no-drug control)", "setting": "Sec61; pPL signal peptide, Drug nM (log10) 3.04576", "value": "5.549% and 7.948% and 6.334% and 6.2294%"},
      {"measurement": "secreted luciferase activity (% of no-drug control)", "setting": "Sec61; pPL signal peptide, Drug nM (log10) 3.52288", "value": "4.849% and 7.368% and 5.461% and 6.2207%"},
      {"measurement": "secreted luciferase activity (% of no-drug control)", "setting": "Sec61; pPL signal peptide, Drug nM (log10) 4", "value": "4.167% and 6.905% and 5.234% and 5.9772%"},
      {"measurement": "secreted luciferase activity (% of no-drug control)", "setting": "Sec61; pPL signal peptide, Drug nM (log10) -0.29409", "value": "102.214% and 111.849% and 98.9284% and 92.0234%"},
      {"measurement": "efficacy in mouse skin inflammation model", "setting": "[1]", "value": "modest efficacy"}
    ]}
  ]
}
